# According to publication PMC10454375, “Cell-Impermeable Inhibitors Confirm That Intracellular Human Transglutaminase 2 Is Responsible for the Transglutaminase-Associated Cancer Phenotype” (International Journal of Molecular Sciences, 2023):
# Read-outs that look alike come from different tables or passages of the source.
# Assays:
# Recombinant human TG2 [1] = molecular target: T1, Recombinant human TG2 (Homo sapiens, UniProt P21980); design: method as in PMID 36846375; details: previous lead compound, Figure 1; cited from earlier work
# T1 construct: GST (with PSP protease site, plasmid pGST-PSP-rhTG2) (N, cleaved yes); made in house; host or cells: E. coli (BL21)
# T1 sequence (P21980 1-687): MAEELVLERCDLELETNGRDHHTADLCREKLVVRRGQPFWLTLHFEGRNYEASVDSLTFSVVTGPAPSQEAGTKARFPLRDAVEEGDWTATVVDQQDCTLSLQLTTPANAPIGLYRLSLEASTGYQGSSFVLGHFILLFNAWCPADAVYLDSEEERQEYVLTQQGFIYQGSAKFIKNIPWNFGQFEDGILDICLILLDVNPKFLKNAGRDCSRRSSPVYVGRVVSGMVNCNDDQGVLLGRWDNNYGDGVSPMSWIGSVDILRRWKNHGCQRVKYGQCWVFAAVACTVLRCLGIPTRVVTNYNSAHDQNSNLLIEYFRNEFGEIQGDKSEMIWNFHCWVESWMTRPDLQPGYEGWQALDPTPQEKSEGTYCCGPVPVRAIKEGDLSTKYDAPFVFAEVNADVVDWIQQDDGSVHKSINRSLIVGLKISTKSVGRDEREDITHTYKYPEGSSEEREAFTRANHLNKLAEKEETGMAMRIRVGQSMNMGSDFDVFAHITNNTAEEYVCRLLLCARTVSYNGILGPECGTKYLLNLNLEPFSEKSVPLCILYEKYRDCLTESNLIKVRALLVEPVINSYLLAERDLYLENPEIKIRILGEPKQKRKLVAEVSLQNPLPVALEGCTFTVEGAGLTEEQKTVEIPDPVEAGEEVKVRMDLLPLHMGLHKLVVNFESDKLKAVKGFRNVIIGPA
# Recombinant human TG2 [2] = molecular target: T1, Recombinant human TG2; experiment: rhTG2 inhibition assay, continuous chromogenic substrate AL5, Kitz and Wilson conditions; type: biochemical; details: for kinact / Ki: * compounds fitted to double reciprocal model, 25 °C, pH 6.9, 100 µM AL5; for kinact/KI: * double reciprocal model, ** lowest concentrations of saturation plot fitted to a linear model; for Ki: irreversible inhibition
# From the text: Relative to the original scaffold, we expected the potency of these novel chemical biology tools to decrease slightly, due to the additional bulk incorporated on the glutamate sidechain. Although we expected the sidechain moiety to be directed into bulk solvent, we were concerned that its mass and charge would disfavor the binding interaction. Therefore, we kinetically characterized these probes as rigorously as possible, in order to determine their relative affinity and reactivity. For most inhibitors we have made, including the parent inhibitor AA9 (Figure 1), we have been able to measure kinetic parameters under Kitz and Wilson conditions. This experimental approach is based on the use of a continuous activity assay and the measurement of first-order rate constants for the time-dependent inactivation of enzyme (see Figure 2A and Figures S1–S5 in Supplementary Materials). The dependence of these observed rate constants (kobs) on the inhibitor concentration divided by alpha ([I]/α) can then be fitted to a hyperbolic saturation model where the upper plateau represents the rate constant of inactivation (kinact), and the concentration providing half the rate constant of inactivation represents KI (Figure 2B). […] To compensate for this, the overall efficiency of the inhibitor (kinact/KI) can be derived from the slope of the linear region of the saturation plot (Figure 2C). To gauge the individual parameters, a double reciprocal fitting was also employed where KI can be calculated from the x-axis intercept and kinact can be calculated from the y-axis intercept (Figure 2D).
# Recombinant human TG2 was expressed and purified using previously published protocols. The inhibition was monitored using a continuous chromogenic substrate AL5 [38] under Kitz and Wilson conditions. In brief, 125 µL of assay buffer composed of 111.11 mM MOPS, 15.56 CaCl2 pH 6.9 was added to a 1.5 mL Eppendorf tube to achieve final assay concentrations of 50 mM MOPS and […] CaCl2. To the tube was then added the respective concentration of inhibitor from an aqueous working stock (<5% DMSO final conditions). Various volumes of water were then added to ensure the final volumes were equal. The AL5 substrate was added to the Eppendorf tube as a 5 µL 5.56 mM solution in DMSO to obtain a final assay concentration of 100 µM. A 96-well polystyrene microplate then had 180 µL of the assay mixture added to it. The enzymatic reaction was finally initiated by addition of 20 µL 5 mU prediluted TG2 in assay buffer using a multichannel pipette. The reaction was monitored at 405 nm using a BioTek Synergy 4 plate reader for 20 min at 25 °C. A positive control with no inhibitor and a blank with no enzyme nor inhibitor were also included. The blank subtracted kinetic curves were then analyzed. The observed first-order rate constants of inactivation were gathered through a one-phase association model using the GraphPad software package. The rate constants were then fit to various models to elucidate the inhibition parameters. If saturation was achieved, they were fit to a saturation model versus the inhibitor concentration divided by alpha (where α=1+Substrate/Km ). A linear regression of the linear region of this saturation fitting was calculated to obtain a ratio of kinact/KI. A further double reciprocal model was used if saturation could not be observed due to the limitations in sensitivity of the assay or if solubility issues were present.
# [3] = Solubility in aqueous solutions; type: physicochemical; details: read-out: concentration above which decreased solubility in aqueous solutions was displayed
# GST-TG2 fusion protein = molecular target: T2, GST-TG2 fusion protein (Homo sapiens, UniProt P21980); experiment: Pull-down of rhTG2 from E. coli lysate (CuAAC with desthiobiotin-PEG3-azide, streptavidin resin); type: binding; details: E. coli lysate overexpressing GST-rhTG2; elution with 4 mM biotin
# T2 construct: made in house; host or cells: BL21 E. coli (crude lysate)
# T2 sequence (P21980 with tags, fused parts or gaps): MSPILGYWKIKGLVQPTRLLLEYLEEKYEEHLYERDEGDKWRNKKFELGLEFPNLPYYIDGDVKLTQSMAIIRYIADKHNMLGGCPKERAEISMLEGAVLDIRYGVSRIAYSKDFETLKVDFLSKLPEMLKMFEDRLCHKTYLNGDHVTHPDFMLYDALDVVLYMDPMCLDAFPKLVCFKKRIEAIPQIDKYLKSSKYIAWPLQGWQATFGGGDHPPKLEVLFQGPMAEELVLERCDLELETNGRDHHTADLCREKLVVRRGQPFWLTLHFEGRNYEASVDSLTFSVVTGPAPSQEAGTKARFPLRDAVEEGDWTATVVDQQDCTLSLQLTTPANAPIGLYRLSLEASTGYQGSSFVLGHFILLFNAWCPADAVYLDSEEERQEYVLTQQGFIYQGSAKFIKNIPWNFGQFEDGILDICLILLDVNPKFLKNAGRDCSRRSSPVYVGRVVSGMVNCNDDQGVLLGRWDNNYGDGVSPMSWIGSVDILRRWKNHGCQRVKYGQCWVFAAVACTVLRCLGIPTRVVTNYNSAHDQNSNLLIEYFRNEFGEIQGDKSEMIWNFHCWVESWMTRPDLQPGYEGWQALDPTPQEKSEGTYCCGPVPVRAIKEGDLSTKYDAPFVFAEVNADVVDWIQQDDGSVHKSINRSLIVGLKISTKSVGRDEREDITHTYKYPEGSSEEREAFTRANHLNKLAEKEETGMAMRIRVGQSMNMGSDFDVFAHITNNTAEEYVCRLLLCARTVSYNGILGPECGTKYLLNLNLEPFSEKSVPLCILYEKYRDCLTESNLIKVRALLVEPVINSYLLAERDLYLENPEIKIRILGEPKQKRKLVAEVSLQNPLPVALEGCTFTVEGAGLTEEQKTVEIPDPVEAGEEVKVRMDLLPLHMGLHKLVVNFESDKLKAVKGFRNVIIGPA
# Method: As a proof of concept, previously described BL21 E. coli cells were transformed with a plasmid (pGST-PSP-rhTG2) to induce overexpression of recombinant human TG2 (rhTG2) as a GST fusion protein [47]. The bacterial cells were then lysed and exposed to the propargylated inhibitor 31 to allow for labelling. A subsequent CuAAC reaction was then performed in the same cell lysate to incorporate the desthiobitoin-PEG3-azide into labelled TG2. The lysate was then passed over streptavidin resin to isolate all proteins that had reacted with inhibitor 31. These proteins were then eluted from the resin using a solution of 4 mM biotin, and the eluant was analyzed by SDS-PAGE. […] This validates not only the TG2-selectivity of probe 31, but also the efficiency of the click reaction of the GST-TG2-31 adduct, allowing for the isolation of TG2 from cell lysate in a very mild manner.
# A total of 400 µL of the aforementioned E. coli cell lysate combined with 133 µL of a solution of 75 µM 31 was added to a 1.5 mL Eppendorf tube. The labelling was allowed to occur for 25 min. Totals of 25 µL of a solution of 500 µM azide-PEG3-desthiobiotin 32 and 500 µM cupric sulfate in 20 mM HEPES at pH 8.0 were added to the tube. To initiate the click reaction, 100 µL of 150 µM sodium ascorbate solution in mQ H2O was added and gently rocked for 2.5 h at room temperature. […]
Compound,kinact/KI (Recombinant human TG2 [1]) [M⁻¹ s⁻¹],kinact (Recombinant human TG2 [2]) [s⁻¹],kinact/KI (Recombinant human TG2 [2]) [M⁻¹ s⁻¹],Ki (Recombinant human TG2 [2]) [µM],solubility [3] [µM],proteins isolated by pull-down (TG2 selectivity) (GST-TG2 fusion protein)
C=CC(=O)NCCCC[C@H](NC(=O)OCc1ccccc1)C(=O)N1CCN(C(=O)c2cccc3ccccc23)CC1 [AA9],1670,,,,,
C=CC(=O)NCCCC[C@H](NC(=O)OCc1ccccc1)C(=O)N1CCN(C(=O)[C@H](CCC(=O)NCCCCCNC(=O)c2cc3ccc(N(CC)CC)cc3oc2=O)NC(=O)c2cccc3ccccc23)CC1 [Compound 22],,0.004,3130,1.3 ± 1.1,> 25,
C#CCNC(=O)CC[C@H](NC(=O)c1cccc2ccccc12)C(=O)N1CCN(C(=O)[C@H](CCCCNC(=O)C=C)NC(=O)OCc2ccccc2)CC1 [Compound 31],,0.00767,8280,0.9 ± 0.5,,the only protein efficiently isolated in this experiment corresponds to the GST-TG2 fusion protein
